Assay results from article PMC11510805, “In Vivo Effects of a GHR Synthesis Inhibitor During Prolonged Treatment in Dogs” (Pharmaceuticals, 2024).

What was measured:
CYP2C8 = target: T1, CYP2C8 (Homo sapiens, UniProt P10632); conditions: human liver microsomes
T1 sequence (P10632 1-490): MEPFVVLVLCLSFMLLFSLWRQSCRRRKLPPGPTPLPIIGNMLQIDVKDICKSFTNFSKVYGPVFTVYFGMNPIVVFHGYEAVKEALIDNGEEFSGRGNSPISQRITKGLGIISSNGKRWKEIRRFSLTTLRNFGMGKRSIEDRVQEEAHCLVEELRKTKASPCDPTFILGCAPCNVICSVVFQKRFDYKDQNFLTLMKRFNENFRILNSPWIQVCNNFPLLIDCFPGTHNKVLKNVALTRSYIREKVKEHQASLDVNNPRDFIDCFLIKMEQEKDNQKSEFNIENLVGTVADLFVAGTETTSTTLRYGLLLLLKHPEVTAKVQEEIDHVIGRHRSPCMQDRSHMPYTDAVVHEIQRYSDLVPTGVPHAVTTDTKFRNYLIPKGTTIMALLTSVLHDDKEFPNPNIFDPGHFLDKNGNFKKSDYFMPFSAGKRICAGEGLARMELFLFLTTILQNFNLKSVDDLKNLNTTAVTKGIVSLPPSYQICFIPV

CYP2C19 = CYP2C19 (Homo sapiens, UniProt P33261); conditions: human liver microsomes
Chain of CYP2C19 (P33261 whole entry): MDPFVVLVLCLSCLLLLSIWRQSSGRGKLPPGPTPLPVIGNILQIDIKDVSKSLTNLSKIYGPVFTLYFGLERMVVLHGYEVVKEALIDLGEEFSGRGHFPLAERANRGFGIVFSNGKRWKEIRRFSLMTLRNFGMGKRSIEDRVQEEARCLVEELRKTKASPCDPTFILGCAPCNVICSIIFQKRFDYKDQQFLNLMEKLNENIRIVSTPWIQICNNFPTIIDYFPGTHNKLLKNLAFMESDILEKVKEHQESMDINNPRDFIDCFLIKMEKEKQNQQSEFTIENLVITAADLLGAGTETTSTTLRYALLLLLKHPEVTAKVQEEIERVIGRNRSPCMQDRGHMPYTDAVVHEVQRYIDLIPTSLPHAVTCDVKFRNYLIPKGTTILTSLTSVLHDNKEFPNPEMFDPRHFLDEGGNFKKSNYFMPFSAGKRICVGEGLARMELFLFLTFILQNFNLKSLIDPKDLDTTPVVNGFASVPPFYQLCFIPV

CYP2C8 Imax of reference inhibitor (CYP2C8) [%] | CYP2C19 Imax of reference inhibitor (CYP2C19) [%] | Compound
88 | – | O=c1c(O)c(-c2ccc(O)c(O)c2)oc2cc(O)cc(O)c12 [Quercetin]
– | 87 | C=C(C)[C@@H]1CCC2=CC(=O)C[C@@H](C)[C@]2(C)C1 [Nootkatone]
